# In patent US10208033B2, “β-carboline, dihydro-β-carboline and tetrahydro-β-carboline alkaloid derivatives and preparation methods same and use in aspects of preventing and treating plant viruses, fungicides and insecticides” (NANKAI UNIVERSITY, priority 2013, dated 2019):
# Read-outs that look alike come from different tables or passages of the source.
# Tests used:
# [1] = system: tobacco mosaic virus (TMV); test: Anti-TMV in vitro effect (half-leaf soaking); format: cell-based, tobacco mosaic virus (host Nicotiana tabacum L.cv.Xanthi NN)
# [2] = system: tobacco mosaic virus (TMV); test: Anti-TMV in vivo inactivation; design: species or system tobacco mosaic virus (host Nicotiana tabacum L.cv.Xanthi NN)
# [3] = system: tobacco mosaic virus (TMV); test: Anti-TMV in vivo therapeutic effect; design: species or system tobacco mosaic virus (host Nicotiana tabacum L.cv.Xanthi NN)
# [4] = system: tobacco mosaic virus (TMV); test: Anti-TMV in vivo protective effect; design: species or system tobacco mosaic virus (host Nicotiana tabacum L.cv.Xanthi NN)
# cucumber fusarium wilt = test: Fungicidal (bactericidal) activity in vitro, PDA colony diameter; format: cell-based; conditions: 50 mg/kg
# Cercospora arachidicola = test: as above; format: cell-based; conditions: 50 mg/kg
# Macrophoma kawatsukai = test: as above; format: cell-based; conditions: 50 mg/kg
# Alternaria solani = test: as above; format: cell-based; conditions: 50 mg/kg
# Fusarium graminearumt = test: microbe, parasite or virus in culture; format: cell-based; conditions: 50 mg/kg
# potato late blight = test: microbe, parasite or virus in culture; format: cell-based
# Sclerotinia scleotiorum = test: Fungicidal (bactericidal) activity in vitro, PDA colony diameter; format: cell-based; conditions: 50 mg/kg
# Botrytis cinerea = test: as above; format: cell-based; conditions: 50 mg/kg
# Rhizoctonia solani = test: as above; format: cell-based; conditions: 50 mg/kg
# Phytophthora capsici = test: as above; format: cell-based; conditions: 50 mg/kg
# Fusarium fujikuroi = test: as above; format: cell-based; conditions: 50 mg/kg
# Rhizoctonia cereali = test: as above; format: cell-based
# Bipolaria maydis = test: organism not typed; format: cell-based; conditions: 50 mg/kg
# [5] = system: Colletotrichum orbiculare; test: Fungicidal (bactericidal) activity in vitro, PDA colony diameter; format: cell-based; conditions: 50 mg/kg
# armyworms = format: in vivo; conditions: concentration 600 mg/kg
# cotton bollworms = test: whole plant or invertebrate; conditions: concentration 600 mg/kg
# Method: Experimental method of cotton bollworms: feed and drug mixing method: measure 3 mL of prepared solution and add it to about 27 g of newly prepared feed, thereby obtaining needed concentration through dilution by 10 times.
# mosquito larvae = test: whole plant or invertebrate; conditions: 24 h
# How it was run: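 Early fourth-instar Culex pipiens pallens larvae from an indoor colony, 10 per beaker, exposed to test compound at 5 ppm in water, diluted from a 1000 ppm acetone mother solution. Blank: water containing 0.5 mL test solvent.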
# corn borers = conditions: concentration 600 mg/kg
Structure (SMILES),Relative inhibition rate (%) In vitro activity ([1]; treatment dose 100 μg/mL),Relative inhibition rate (%) In vitro activity ([1]; treatment dose 500 μg/mL),Relative inhibition rate (%) In vivo inactivation ([2]; treatment dose 100 μg/mL),Relative inhibition rate (%) In vivo inactivation ([2]; treatment dose 500 μg/mL),Relative inhibition rate (%) In vivo therapy ([3]; treatment dose 100 μg/mL),Relative inhibition rate (%) In vivo therapy ([3]; treatment dose 500 μg/mL),Relative inhibition rate (%) In vivo protection ([4]; treatment dose 100 μg/mL),Relative inhibition rate (%) In vivo protection ([4]; treatment dose 500 μg/mL),Bactericidal activity (%) Cucumber fusarium wilt (cucumber fusarium wilt),Bactericidal activity (%) Cercospora arachidicola (Cercospora arachidicola),Bactericidal activity (%) Macrophoma kawatsukai (Macrophoma kawatsukai),Bactericidal activity (%) Alternaria solani (Alternaria solani),Bactericidal activity (%) Fusarium graminearumt (Fusarium graminearumt),Bactericidal activity (%) potato late blight (potato late blight),Bactericidal activity (%) Sclerotinia scleotiorum (Sclerotinia scleotiorum),Bactericidal activity (%) Botrytis cinerea (Botrytis cinerea),Bactericidal activity (%) Rhizoctonia solani (Rhizoctonia solani),Bactericidal activity (%) Phytophthora capsici (Phytophthora capsici),Bactericidal activity (%) Fusarium fujikuroi (Fusarium fujikuroi),Bactericidal activity (%) Bipolaria maydis (Bipolaria maydis),further results
"C[C@@H]1N[C@H](C(=O)NN=Cc2ccc(N(C)C)cc2)Cc2c1[nH]c1ccccc21 [Ic-3, (1S, 3S)—N′-(4-dimethylaminobenzylidene)-1-methyl-2,3,4,9-tetrahydropyridino [3,4-b] indol-3-formylhydrazine]",20.4%,56.8%,25%,64.5%,23.1%,60.4%,18.9%,62.4%,38.5%,76.5%,97.2%,65.0%,31.0%,72.0%,41.2%,72.7%,63.2%,78.9%,35.7%,64.0%,Bactericidal activity (%) Rhizoctonia cereali (Rhizoctonia cereali; 50 mg/kg): 96.1%; Bactericidal activity (%) Colletotrichum orbiculare [5]: 48.1%; Armyworm Mortality (%) (armyworms): 25%; Cotton bollworm Mortality (%) (cotton bollworms): 40%; Mosquito larvae Mortality (%) (mosquito larvae; concentration 10 mg/kg): 55%; Corn borer Mortality (%) (corn borers): 30%
"C[C@@H]1N[C@H](C(=O)NN=Cc2ccc([N+](=O)[O-])cc2)Cc2c1[nH]c1ccccc21 [Ic-4, (1S, 3S)—N′-(4-nitrobenzylidene)-1-methyl-2,3,4,9-tetrahydropyridino [3,4-b] indol-3-formylhydrazine]",19.6%,62.8%,27.4%,58.3%,20.8%,57.1%,21.4%,61.5%,38.5%,58.8%,72.2%,45.0%,58.6%,52.0%,88.2%,72.7%,59.2%,78.9%,42.9%,60.0%,Bactericidal activity (%) Rhizoctonia cereali (Rhizoctonia cereali; 50 mg/kg): 88.2%; Bactericidal activity (%) Colletotrichum orbiculare [5]: 48.1%; Armyworm Mortality (%) (armyworms): 30%; Cotton bollworm Mortality (%) (cotton bollworms): 35%; Mosquito larvae Mortality (%) (mosquito larvae; concentration 10 mg/kg): 65%; Corn borer Mortality (%) (corn borers): 35%
"C[C@@H]1N[C@H](C(=O)NN=Cc2ccc(Cl)cc2Cl)Cc2c1[nH]c1ccccc21 [Ic-6, (1S, 3S)—N′-(2,4-dichlorobenzylidene)-1-methyl-2,3,4,9-tetrahydropyridino [3,4-b] indol-3-formylhydrazine]",20.1%,56.8%,28.5%,66.7%,31.5%,60.4%,18.6%,57.2%,27.3%,45.5%,48.5%,42.9%,53.8%,39.1%,46.2%,52.8%,45.8%,60.6%,47.1%,56.0%,Bactericidal activity (%) Rhizoctonia cereali (Rhizoctonia cereali): 56.8%; Bactericidal activity (%) Colletotrichum orbiculare [5]: 60.0%; Armyworm Mortality (%) (armyworms): 45%; Cotton bollworm Mortality (%) (cotton bollworms): 35%; Mosquito larvae Mortality (%) (mosquito larvae; concentration 5 mg/kg): 20%; Mosquito larvae Mortality (%) (mosquito larvae; concentration 10 mg/kg): 100%; Corn borer Mortality (%) (corn borers): 40%
"COc1ccc(C=NNC(=O)[C@@H]2Cc3c([nH]c4ccccc34)[C@H](C)N2)cc1 [Ic-8, (1S, 3S)—N′-(4-methoxybenzylidene)-1-methyl-2,3,4,9-tetrahydropyridino [3,4-b] indol-3-formylhydrazine]",28.7%,62.5%,30.4%,69.1%,34.8%,66.4%,31.8%,70%,23.1%,64.7%,72.2%,30.0%,65.5%,52.0%,94.1%,59.1%,59.2%,73.7%,64.3%,68.0%,Bactericidal activity (%) Rhizoctonia cereali (Rhizoctonia cereali; 50 mg/kg): 84.3%; Bactericidal activity (%) Colletotrichum orbiculare [5]: 55.6%; Armyworm Mortality (%) (armyworms): 20%; Cotton bollworm Mortality (%) (cotton bollworms): 35%; Mosquito larvae Mortality (%) (mosquito larvae; concentration 10 mg/kg): 35%; Corn borer Mortality (%) (corn borers): 15%
"COc1cccc(C=NNC(=O)[C@@H]2Cc3c([nH]c4ccccc34)[C@H](C)N2)c1 [Ic-9, (1S, 3S)—N′-(3-methoxybenzylidene)-1-methyl-2,3,4,9-tetrahydropyridino [3,4-b] indol-3-formylhydrazine]",13.2%,53.2%,22.1%,59.2%,16.5%,54%,20.6%,54.7%,34.6%,58.8%,69.4%,65.0%,41.4%,40.0%,88.2%,68.2%,68.4%,81.6%,57.1%,48.0%,Bactericidal activity (%) Rhizoctonia cereali (Rhizoctonia cereali; 50 mg/kg): 92.2%; Bactericidal activity (%) Colletotrichum orbiculare [5]: 40.7%; Armyworm Mortality (%) (armyworms): 35%; Cotton bollworm Mortality (%) (cotton bollworms): 30%; Mosquito larvae Mortality (%) (mosquito larvae; concentration 10 mg/kg): 75%; Corn borer Mortality (%) (corn borers): 40%
